Assay results taken from US11179469B2, “Transdermal absorption preparation” (Nitto Denko Corporation, priority 2017, dated 2021).

Experiment: Octanol/water partition coefficient of the drug (log P1)
Type: physicochemical
Settings: base 10 logarithm
Excerpt: The octanol/water partition coefficient is the ratio of the distribution of a certain chemical substance respectively to n-octanol and water (ratio of the concentration in n-octanol phase and aqueous phase). It is used as an index showing hydrophobicity and transferability of the chemical substance, and can be measured by the flask shaking method prescribed in the Economic Development Cooperation Organization (OECD) Test Guideline 107 and the like or calculated using the calculation software (“Cache Workspace (registered trade mark)” manufactured by Fujitsu Limited) etc. and inputting the structural formula of the compound. The octanol/water partition coefficient of the polymer is calculated using the molecule structural formula in a monomer unit.

SMILES	logP1 (octanol/water partition coefficient of the drug)
CC(C)(C)NCC(O)c1ccccc1Cl (centres unmarked) [Tulobuterol]	2.55
CC(C)C[C@H](CN)CC(=O)O [pregabalin]	0.89
